Source: patent US12097174B2, “Methods and agents that enhance myogenic progenitor cell engraftment” (President and Fellows of Harvard College, priority 2018, dated 2024)
“Also recorded” adds a separate entry of the source.

How the values were obtained:
[1] = system: Zebrafish myogenic progenitor cells (ZeMPCs); test: Limiting dilution engraftment assay (ELDA): cells treated ex vivo, transplanted into adult zebrafish, imaged at 7 dpt; type: in vivo; details: for engraftment efficiency compared with DMSO/vehicle-treated cells: 0.1 μM LPA or 0.3 μM NFA; for engraftment efficiency relative to vehicle-treated controls: 5 μM LPA or 10 μM NFA; for engraftment capacity of transplanted myogenic progenitors in recipient adult zebrafish: 4 hour ex vivo chemical exposure, replicate transplantation
Method: Donor cells were derived from embryos that contained a GFP cassette driven by the promoter for mylz2, a muscle-specific structural protein. Recipients were optically clear, immunocompromised adult prkdc−/− zebrafish. To perform a limiting dilution assay, three doses (n=100, 200, and 400 cells) were administered per treatment (n=10 engraftment events per treatment-dose combination). The estimated engrafting cell frequency was calculated using the Extreme Limiting Dilution Analysis (ELDA, Hu et. al. 2009), which provides the most likely estimate (MLE) of engrafting cell frequency.
Given that this group of 230 lipids is too many to be examined in mice, transplantation efficiency was instead examined via limit-dilution assays in 15 recipient zebrafish per compound after a brief (4 hour) ex vivo chemical exposure. Positive hits from this primary screening were rescreened in replicate transplantation experiments incorporating dose response testing.
Lipids are frequently found to enhance cell migration and homeostasis in blood and muscle tissue (Cencetti et al., 2014; Lahvic et al., 2018; Li et al., 2015; Oh et al., 2016), and so it was elected to screen mainly bioactive lipids in efforts to identify compounds that enhance ZeMPCs engraftment efficiency in vivo. Myogenic progenitor cells were treated for 4 hours with one of the 188 unique lipid compounds contained in the ICCB Known Bioactives Library. Compound-treated cells were then harvested and transplanted intramuscularly into both flanks of 5 different casper recipient fish, with transplants performed at each of 3 transplanted cell doses (25, 75 or 150 cells). In these studies, recipient fish received split-dose irradiation of 15 Gy at 2 days and 1 day prior to transplantation to suppress any immune responses to the transplanted cells. Engraftment efficiency was measured by imaging casper recipients at 7 dpt (FIG. 18A). […] For this secondary screening approach, cells were transplanted into prkdc^D3612ls casper fish, which are deficient in mature T and B cells, and assayed engraftment efficiency in the recipient fish 7 days post-transplantation. Two compounds were identified, lysophosphatidic acid (LPA) and niflumic acid (NFA), which increased ZeMPC engraftment efficiency in both of these assay systems (FIG. 12B).
Lipids from the ICCB Known Bioactives Library (enzolifesciences.com/BML-2840/iccb-known-bioactives-library) were diluted at a 1:100 ratio in transplantation media (zESC medium without bFGF and FBS) and added to prewashed in vitro expanded muscle cells. NFA (Cayman and Santa Cruz Biotechnology) and LPA (Cayman and Santa Cruz Biotechnology) were used for the secondary confirmation screening experiments. […] 4- to 8-month-old casper recipients received split-dose irradiation of 15 Gy each, either 2 days or 1 day before transplantation. For LDA screening, cells were transplanted into each side of 5 pre-irradiated casper recipient fish or 5 non-irradiated prkdc-mutant recipient zebrafish. At 7 dpt, the recipients were anaesthetized using a previously described method (Dang et al., 2016) and imaged using a fluorescent stereo microscope (Leica M165 FC). Successful engraftment was defined as the presence of GFP+ fibers. Variation in different experiments is caused by inherent variability in the in vitro ZeMPC derivation procedure, which results in differences in engrafting cell frequency across different derivation attempts. To mitigate the impact of such experimental variation on screening results, only LDA results for cells derived from the same cultures were compared. Comparison to a vehicle-treated experimental control was included in every transplantation experiment. Next, the chemical treated cell potency and vehicle-treated cell potency was measured using the Extreme Limiting Dilution Analysis (ELDA) software (Hu and Smyth, 2009). The ratio of the treated cell potency and vehicle-treated cell potency determine the engraftment efficiency fold increase value.

mouse satellite cells = test: Calcium imaging in Fluo-4 AM-loaded mouse satellite cells (AUC of signal intensity); type: cell-based; details: 1-5 μM of LPA, 2.5-10 μM of NFA; 1,500 cells/well
Method: First, to establish optimal conditions, cells were sorted by FACS into 384 well plates at 10,000, 5,000, 1,500, or 500 cells per well, with 8 replicates for each cell density. […] Cells were again incubated with Fluo4 AM for 45 minutes at 37° C. followed by imaging. Different concentrations of LPA, NFA, or both compounds combined, along with DMSO (vehicle control) and ionomycin (direct calcium ionophore), were added 60 seconds after the beginning of imaging to quantify both baseline calcium ion concentrations and calcium flux in response to the different treatment conditions. Calcium concentrations were calculated as area under the curve (AUC) of signal intensity and compared these values across different concentrations of each compound (FIG. 25A).
Satellite cells were isolated from wild-type mice (FVB/NJ) and sorted into 384 well plates in culture media. The cells were incubated overnight at 37° C. The next day, the cells were incubated with Fluo-4 AM (Thermo Fisher Sci F14201), a fluorescent calcium ion indicator, for 45 minutes at 37° C., followed by imaging of the entire plate with the FDSS 7000 ex functional drug screening system (Hamamatsu) in the BCH assay development and screening facility.

C2C12 cells = test: Calcium imaging in Fura-2, AM treated C2C12 cells (single-cell imaging); type: cell-based, mouse; details: 10 μM NFA, 5 μM LPA; 10-20 seconds after loading
Method: Fura-2, AM treated C2C12 cells were exposed to 10 μM NFA, 5 μM LPA or DMSO as vehicle control to visualize the effect on intracellular calcium ion concentration using single-cell imaging. […] Scale bar 50 μm.
The ZeMPCs and C2C12 cells were incubated with Fura-2, AM (Thermo Fisher Sci F1225), a cell permeant fluorescent calcium ion indicator, for 45 minutes at 28.5° C. and 37° C., respectively, followed by imaging with Celldiscoverer7 Microscope (Zeiss). 20 seconds after imaging initiation the treatment was added to the cells and continued for a total of 2-3 minutes.

ZeMPCs = test: ZeMPC competitive transplantation assay; type: in vivo; details: co-injected into prkdc-mutant zebrafish, imaged at 7 dpt
Text: FIGS. 20A-20B show ZeMPC competitive transplantation assays results. (FIG. 20A) Experimental design of ZeMPC competitive transplantation assays using different combinations of chemical-treated or DMSO-treated ZeMPCs marked by mCherry or GFP. ZeMPCs were co-injected from mylz2-GFP and mylz2-mCherry donors into 4- to 8-months-old prkdc-mutant recipient zebrafish and imaged at 7 dpt to assess the engraftment of mylz2-mCherry (pre-transplantation treatment with DMSO) and mylz2-GFP (pre-transplantation treatment with DMSO, LPA or NFA) cells. (FIG. 20B) Engraftment efficiency of equal numbers of DMSO-treated mCherry cells vs. DMSO-treated GFP cells (left), DMSO-treated mCherry cells vs. LPA-treated GFP cells (middle) and DMSO-treated mCherry cells vs. NFA-treated GFP cells (right).
Lipids are frequently found to enhance cell migration and homeostasis in blood and muscle tissue (Cencetti et al., 2014; Lahvic et al., 2018; Li et al., 2015; Oh et al., 2016), and so it was elected to screen mainly bioactive lipids in efforts to identify compounds that enhance ZeMPCs engraftment efficiency in vivo. Myogenic progenitor cells were treated for 4 hours with one of the 188 unique lipid compounds contained in the ICCB Known Bioactives Library. […] Engraftment efficiency was measured by imaging casper recipients at 7 dpt (FIG. 18A). […]

Compound: O=C(O)c1cccnc1Nc1cccc(C(F)(F)F)c1 [NFA, niflumic acid]
- engraftment efficiency compared with DMSO/vehicle-treated cells [1]: did not change the engraftment efficiency; also recorded: did not alter the engraftment efficiency; also recorded: no difference
- engraftment efficiency relative to vehicle-treated controls [1]: 2.37 times
- engraftment efficiency compared with DMSO treated cells ([1]; 15 uM NFA or 4 uM LPA): increased engraftment efficiency
- engraftment capacity of transplanted myogenic progenitors in recipient adult zebrafish [1]: increasing the engraftment capacity
- engraftment efficiency relative to DMSO-treated cells ([1]; ZeMPCs treated for 1 hour): did not alter
- engraftment efficiency relative to DMSO-treated cells ([1]; ZeMPCs treated for 2 hours): 2.85 times
- engraftment efficiency relative to DMSO-treated cells ([1]; ZeMPCs treated for 4 hours): 2.64 times
- calcium ion concentrations (AUC of signal intensity) relative to vehicle-treated controls (mouse satellite cells): increased significantly
- intracellular calcium ion concentration (C2C12 cells): increase
- advantage compared to DMSO-treated control cells in competitive transplantation (ZeMPCs): ~2 fold

Compound: lysophosphatidic acid [LPA]
- engraftment efficiency compared with DMSO/vehicle-treated cells [1]: did not change the engraftment efficiency; also recorded: did not alter the engraftment efficiency; also recorded: did not result in any change
- engraftment efficiency compared with DMSO treated cells ([1]; 0.3 uM LPA): did not change the engraftment efficiency
- engraftment efficiency relative to vehicle-treated controls [1]: 2.34 times
- engraftment efficiency compared with DMSO treated cells ([1]; 15 uM NFA or 4 uM LPA): increased engraftment efficiency
- engraftment capacity of transplanted myogenic progenitors in recipient adult zebrafish [1]: increasing the engraftment capacity
- engraftment efficiency relative to DMSO-treated cells ([1]; ZeMPCs treated for 1 hour): 1.11 times
- engraftment efficiency relative to DMSO-treated cells ([1]; ZeMPCs treated for 2 hours): 1.72 times
- engraftment efficiency relative to DMSO-treated cells ([1]; ZeMPCs treated for 4 hours): 2.3 times
- calcium ion concentrations (AUC of signal intensity) relative to vehicle-treated controls (mouse satellite cells): increased significantly
- intracellular calcium ion concentration (C2C12 cells): increase
- advantage compared to DMSO-treated control cells in competitive transplantation (ZeMPCs): ~2 fold
